Reference: patent EP1570862A1, “Highly soluble binary cyclodextrin inclusion complexes” (priority 2004, dated 2005)
Converted amounts (≈) assume the structure as drawn.

Experiment: physchem
Conditions: water
Method: The samples were mechanically shaken in a thermostatic bath shaker (~ 200 rpm) to attain thermal equilibrium, an aliquot was centrifuged (when necessary) and filtered using a 0.45µm filter (cellulose acetate or cellulose nitrate, Advantec MFS Inc., Duplin, USA).
The samples were shaken for different time intervals.

In the case of `OC[C@H]1O[C@@H]2O[C@H]3[C@H](O)[C@@H](O)[C@@H](O[C@H]4[C@H](O)[C@@H](O)[C@@H](O[C@H]5[C@H](O)[C@@H](O)[C@@H](O[C@H]6[C@H](O)[C@@H](O)[C@@H](O[C@H]7[C@H](O)[C@@H](O)[C@@H](O[C@H]8[C@H](O)[C@@H](O)[C@@H](O[C@H]1[C@H](O)[C@H]2O)O[C@@H]8CO)O[C@@H]7CO)O[C@@H]6CO)O[C@@H]5CO)O[C@@H]4CO)O[C@@H]3CO` [β-cyclodextrin], the solubility thermodynamic is reported as 115 mM (≈ 131 mg/mL).
